ChEMBL document CHEMBL1148026, “Oxadiazole mannich bases: synthesis and antimycobacterial activity” (Bioorg Med Chem Lett, 2007)
Converted amounts (≈) assume the structure as drawn.

Tests used:
[1] = system: Mycobacterium tuberculosis; assay: Antimycobacterial activity against Mycobacterium tuberculosis H37Rv by agar dilution method using double dilution technique; format: functional
[2] = system: Vero; assay: Toxicity against Vero cells at 62.5 ug/ml after 72 hrs by MTT assay; format: cell-based; conditions: chlorocebus sabaeus

O=S(=O)(c1ccc(NC(Cc2ccco2)n2nc(-c3ccccc3)oc2=S)cc1)c1ccc(NC(Cc2ccco2)n2nc(-c3ccccc3)oc2=S)cc1 (centres undefined)
MIC [1]: 0.94 µM (≈ 0.742 µg/mL)
Activity [2]: Non-toxic

O=S(=O)(c1ccc(NC(c2ccccc2)n2nc(COc3ccc4ccccc4c3)oc2=S)cc1)c1ccc(NC(c2ccccc2)n2nc(COc3ccc4ccccc4c3)oc2=S)cc1 (centres undefined)
MIC [1]: 0.42 µM (≈ 0.395 µg/mL)
Activity [2]: Non-toxic

O=S(=O)(c1ccc(NC(c2ccccc2)n2nc(-c3ccc(Nc4ccccc4)cc3)oc2=S)cc1)c1ccc(NC(c2ccccc2)n2nc(-c3ccc(Nc4ccccc4)cc3)oc2=S)cc1 (centres undefined)
MIC [1]: 1.65 µM (≈ 1.59 µg/mL)
Activity [2]: Non-toxic

O=S(=O)(c1ccc(NC(Cc2ccco2)n2nc(COc3ccc4ccccc4c3)oc2=S)cc1)c1ccc(NC(Cc2ccco2)n2nc(COc3ccc4ccccc4c3)oc2=S)cc1 (centres undefined)
MIC [1]: 0.1 µM (≈ 0.0949 µg/mL)
Activity [2]: Non-toxic

NNC(=O)c1ccncc1 [ISONIAZID]
MIC [1]: 0.73 µM (≈ 0.1 µg/mL)

O=S(=O)(c1ccc(NC(c2ccccc2)n2nc(COc3cccc4ccccc34)oc2=S)cc1)c1ccc(NC(c2ccccc2)n2nc(COc3cccc4ccccc34)oc2=S)cc1 (centres undefined)
MIC [1]: 0.96 µM (≈ 0.903 µg/mL)
Activity [2]: Non-toxic

O=S(=O)(c1ccc(NC(c2ccccc2)n2nc(COc3ccccc3)oc2=S)cc1)c1ccc(NC(c2ccccc2)n2nc(COc3ccccc3)oc2=S)cc1 (centres undefined)
MIC [1]: 0.98 µM (≈ 0.824 µg/mL)
Activity [2]: Non-toxic

O=S(=O)(c1ccc(NC(Cc2ccco2)n2nc(Cc3ccccc3)oc2=S)cc1)c1ccc(NC(Cc2ccco2)n2nc(Cc3ccccc3)oc2=S)cc1 (centres undefined)
MIC [1]: 0.24 µM (≈ 0.196 µg/mL)
Activity [2]: Non-toxic

O=S(=O)(c1ccc(NC(Cc2ccco2)n2nc(COc3cccc4ccccc34)oc2=S)cc1)c1ccc(NC(Cc2ccco2)n2nc(COc3cccc4ccccc34)oc2=S)cc1 (centres undefined)
MIC [1]: 0.72 µM (≈ 0.683 µg/mL)
Activity [2]: Non-toxic

O=S(=O)(c1ccc(NC(Cc2ccco2)n2nc(COc3ccccc3)oc2=S)cc1)c1ccc(NC(Cc2ccco2)n2nc(COc3ccccc3)oc2=S)cc1 (centres undefined)
MIC [1]: 0.14 µM (≈ 0.119 µg/mL)
Activity [2]: Non-toxic

O=[N+]([O-])c1ccc(-c2nn(C(Cc3ccco3)Nc3ccc(S(=O)(=O)c4ccc(NC(Cc5ccco5)n5nc(-c6ccc([N+](=O)[O-])cc6)oc5=S)cc4)cc3)c(=S)o2)cc1 (centres undefined)
MIC [1]: 0.42 µM (≈ 0.369 µg/mL)
Activity [2]: Non-toxic

O=[N+]([O-])c1ccc(-c2nn(C(Nc3ccc(S(=O)(=O)c4ccc(NC(c5ccccc5)n5nc(-c6ccc([N+](=O)[O-])cc6)oc5=S)cc4)cc3)c3ccccc3)c(=S)o2)cc1 (centres undefined)
MIC [1]: 1.94 µM (≈ 1.69 µg/mL)
Activity [2]: Non-toxic

O=S(=O)(c1ccc(NC(c2ccccc2)n2nc(-c3ccccc3)oc2=S)cc1)c1ccc(NC(c2ccccc2)n2nc(-c3ccccc3)oc2=S)cc1 (centres undefined)
MIC [1]: 1.72 µM (≈ 1.34 µg/mL)
Activity [2]: Non-toxic

O=S(=O)(c1ccc(NC(Cc2ccco2)n2nc(-c3ccc(Nc4ccccc4)cc3)oc2=S)cc1)c1ccc(NC(Cc2ccco2)n2nc(-c3ccc(Nc4ccccc4)cc3)oc2=S)cc1 (centres undefined)
MIC [1]: 0.66 µM (≈ 0.641 µg/mL)
Activity [2]: Non-toxic

O=S(=O)(c1ccc(NC(c2ccccc2)n2nc(Cc3ccccc3)oc2=S)cc1)c1ccc(NC(c2ccccc2)n2nc(Cc3ccccc3)oc2=S)cc1 (centres undefined)
MIC [1]: 1.29 µM (≈ 1.04 µg/mL)
Activity [2]: Non-toxic
